Experimental data taken from PubChem BioAssay AID1259407 (Chemical Carcinogenesis Research Information System (CCRIS), 2018).
Active and inactive are the calls of the source. The rule behind the calls is not given here.

Tested on: CCRIS mutagenicity, Ames/micronucleus/aberration tests
Test: CCRIS mutagenicity studies
Conditions: Method: STANDARD PLATE

Measured: mutagenic call

CC(=O)c1ccc(S(=O)(=O)NC(=O)NC2CCCCC2)cc1
inactive: Test System: AMES SALMONELLA TYPHIMURIUM, Strain/Indicator: TA98, Metabolic Activation: HAMSTER, LIVER, S-9, AROCLOR 1254 inactive; negative | Test System: AMES SALMONELLA TYPHIMURIUM, Strain/Indicator: TA98, Metabolic Activation: HAMSTER, LIVER, S-9 inactive; negative | Test System: AMES SALMONELLA TYPHIMURIUM, Strain/Indicator: TA98, Metabolic Activation: MOUSE, LIVER, S-9, AROCLOR 1254 inactive; negative | Test System: AMES SALMONELLA TYPHIMURIUM, Strain/Indicator: TA98, Metabolic Activation: MOUSE, LIVER, S-9 inactive; negative | Test System: AMES SALMONELLA TYPHIMURIUM, Strain/Indicator: TA98, Metabolic Activation: NONE inactive; negative | Test System: AMES SALMONELLA TYPHIMURIUM, Strain/Indicator: TA98, Metabolic Activation: RAT, LIVER, S-9, AROCLOR 1254 inactive; negative | Test System: AMES SALMONELLA TYPHIMURIUM, Strain/Indicator: TA98, Metabolic Activation: RAT, LIVER, S-9 inactive; negative | Test System: AMES SALMONELLA TYPHIMURIUM, Strain/Indicator: TA100, Metabolic Activation: HAMSTER, LIVER, S-9, AROCLOR 1254 inactive; negative | Test System: AMES SALMONELLA TYPHIMURIUM, Strain/Indicator: TA100, Metabolic Activation: HAMSTER, LIVER, S-9 inactive; negative | Test System: AMES SALMONELLA TYPHIMURIUM, Strain/Indicator: TA100, Metabolic Activation: MOUSE, LIVER, S-9, AROCLOR 1254 inactive; negative | Test System: AMES SALMONELLA TYPHIMURIUM, Strain/Indicator: TA100, Metabolic Activation: MOUSE, LIVER, S-9 inactive; negative | Test System: AMES SALMONELLA TYPHIMURIUM, Strain/Indicator: TA100, Metabolic Activation: NONE inactive; negative | Test System: AMES SALMONELLA TYPHIMURIUM, Strain/Indicator: TA100, Metabolic Activation: RAT, LIVER, S-9, AROCLOR 1254 inactive; negative | Test System: AMES SALMONELLA TYPHIMURIUM, Strain/Indicator: TA100, Metabolic Activation: RAT, LIVER, S-9 inactive; negative | Test System: AMES SALMONELLA TYPHIMURIUM, Strain/Indicator: TA1535, Metabolic Activation: HAMSTER, LIVER, S-9, AROCLOR 1254 inactive; negative | Test System: AMES SALMONELLA TYPHIMURIUM, Strain/Indicator: TA1535, Metabolic Activation: HAMSTER, LIVER, S-9 inactive; negative | Test System: AMES SALMONELLA TYPHIMURIUM, Strain/Indicator: TA1535, Metabolic Activation: MOUSE, LIVER, S-9, AROCLOR 1254 inactive; negative | Test System: AMES SALMONELLA TYPHIMURIUM, Strain/Indicator: TA1535, Metabolic Activation: MOUSE, LIVER, S-9 inactive; negative | Test System: AMES SALMONELLA TYPHIMURIUM, Strain/Indicator: TA1535, Metabolic Activation: NONE inactive; negative | Test System: AMES SALMONELLA TYPHIMURIUM, Strain/Indicator: TA1535, Metabolic Activation: RAT, LIVER, S-9, AROCLOR 1254 inactive; negative | Test System: AMES SALMONELLA TYPHIMURIUM, Strain/Indicator: TA1535, Metabolic Activation: RAT, LIVER, S-9 inactive; negative | Test System: AMES SALMONELLA TYPHIMURIUM, Strain/Indicator: TA1537, Metabolic Activation: HAMSTER, LIVER, S-9, AROCLOR 1254 inactive; negative | Test System: AMES SALMONELLA TYPHIMURIUM, Strain/Indicator: TA1537, Metabolic Activation: HAMSTER, LIVER, S-9 inactive; negative | Test System: AMES SALMONELLA TYPHIMURIUM, Strain/Indicator: TA1537, Metabolic Activation: MOUSE, LIVER, S-9, AROCLOR 1254 inactive; negative | Test System: AMES SALMONELLA TYPHIMURIUM, Strain/Indicator: TA1537, Metabolic Activation: MOUSE, LIVER, S-9 inactive; negative | Test System: AMES SALMONELLA TYPHIMURIUM, Strain/Indicator: TA1537, Metabolic Activation: NONE inactive; negative | Test System: AMES SALMONELLA TYPHIMURIUM, Strain/Indicator: TA1537, Metabolic Activation: RAT, LIVER, S-9, AROCLOR 1254 inactive; negative | Test System: AMES SALMONELLA TYPHIMURIUM, Strain/Indicator: TA1537, Metabolic Activation: RAT, LIVER, S-9 inactive; negative | Test System: AMES SALMONELLA TYPHIMURIUM, Strain/Indicator: TA1538, Metabolic Activation: HAMSTER, LIVER, S-9, AROCLOR 1254 inactive; negative | Test System: AMES SALMONELLA TYPHIMURIUM, Strain/Indicator: TA1538, Metabolic Activation: HAMSTER, LIVER, S-9 inactive; negative | Test System: AMES SALMONELLA TYPHIMURIUM, Strain/Indicator: TA1538, Metabolic Activation: MOUSE, LIVER, S-9, AROCLOR 1254 inactive; negative | Test System: AMES SALMONELLA TYPHIMURIUM, Strain/Indicator: TA1538, Metabolic Activation: MOUSE, LIVER, S-9 inactive; negative | Test System: AMES SALMONELLA TYPHIMURIUM, Strain/Indicator: TA1538, Metabolic Activation: NONE inactive; negative | Test System: AMES SALMONELLA TYPHIMURIUM, Strain/Indicator: TA1538, Metabolic Activation: RAT, LIVER, S-9, AROCLOR 1254 inactive; negative | Test System: AMES SALMONELLA TYPHIMURIUM, Strain/Indicator: TA1538, Metabolic Activation: RAT, LIVER, S-9 inactive; negative | Test System: E. COLI, Strain/Indicator: WP2 UVRA, Metabolic Activation: HAMSTER, LIVER, S-9, AROCLOR 1254 inactive; negative | Test System: E. COLI, Strain/Indicator: WP2 UVRA, Metabolic Activation: HAMSTER, LIVER, S-9 inactive; negative | Test System: E. COLI, Strain/Indicator: WP2 UVRA, Metabolic Activation: MOUSE, LIVER, S-9, AROCLOR 1254 inactive; negative | Test System: E. COLI, Strain/Indicator: WP2 UVRA, Metabolic Activation: MOUSE, LIVER, S-9 inactive; negative | Test System: E. COLI, Strain/Indicator: WP2 UVRA, Metabolic Activation: NONE inactive; negative | Test System: E. COLI, Strain/Indicator: WP2 UVRA, Metabolic Activation: RAT, LIVER, S-9, AROCLOR 1254 inactive; negative | Test System: E. COLI, Strain/Indicator: WP2 UVRA, Metabolic Activation: RAT, LIVER, S-9 inactive; negative
